Results reported in US11857604B2, “Nanovectors and uses” (NH THERAGUIX, priority 2017, dated 2024).

Assay: physisorption of active substance on nanoparticles: tangential filtration (3 kDa Vivaspin), subnatant analysed by UV-visible/fluorescence
Assay type: physicochemical
Details: for concentration up to which retention of the active substance is observed (minimum) / load content by weight: AGuIX® at 100 mM [Gd3+] = 100 g/l of nanoparticles
Experimental: During the various examples, the maximum drug load content on polysiloxane nanoparticles was determined, when said particles are present at a concentration corresponding to a concentration used during clinical trials for the nanoparticle in question. Increasing concentrations of active substances were thus brought into contact with the nanoparticles. Solutions are purified by tangential filtration. The molecules which have not be able to adsorb to the surface of the nanoparticles pass through the membrane and are found in the subnatant, where they can be detected by spectroscopic techniques such as UV/Visible absorption or else fluorescence spectroscopy (FIG. 2).
This solution is placed in a 3 kDa Vivaspin®, and a tangential filtration cycle is carried out in order to obtain a supernatant of 200 μl. The subnatant is analysed by UV-visible analysis. The supernatant is diluted 50-fold and is analysed by UV-visible analysis.
This solution is placed in a 3 kDa Vivaspin®, and a tangential filtration cycle is carried out so as to obtain a supernatant of 200 μl. The subnatant is analysed by UV-visible analysis and fluorometry after 20-fold dilution.
This solution is placed in a 3 kDa Vivaspin®, and a tangential filtration cycle is carried out so as to obtain a supernatant of 160 μl. The subnatant is analysed by UV-visible analysis. The cisplatin is detectable by UV/VIS absorption at a wavelength of 706 nm after reaction with ODPA. For the reaction with cisplatin, a solution of ODPA at 1.4 mg/ml and a phosphate buffer (pH 6.8) are prepared. The subnatant is diluted 5-fold. 140 μl of this solution are added to 200 μl of buffer and 100 μl of ODPA. The resulting solution is heated at 100° C. for 15 min. Once the reaction is finished and the temperature has returned to ambient temperature, 560 μl of DMF are added. The final solution is filtered and then analysed by UV-visible analysis.

| concentration up to which retention of the active substance is observed (minimum) [µg/mL] | load content by weight | limiting concentration up to which the peptide adsorbs at the surface of the nanoparticles (AGuIX® 100 mM, absorption at 280 nm of subnatants (FIG. 12)) | Molecule | limiting concentration up to which cisplatin adsorbs at the surface of the nanoparticles (AGuIX® 100 mM, absorption at 706 nm of ODPA-treated subnatants (FIG. 16)) |
| --- | --- | --- | --- | --- |
| ≥ 112 | greater than 1.12 mg/g of nanoparticles | – | COc1cccc2c1C(=O)c1c(O)c3c(c(O)c1C2=O)C[C@@](O)(C(=O)CO)C[C@@H]3O[C@H]1C[C@H](N)[C@H](O)[C@H](C)O1 [doxorubicin] | – |
| ≥ 2000 | greater than 20 mg/g of nanoparticles | approximately 2 g·L^1 | tyr3-octreotate [TATE peptide] | – |

| Molecule | concentration up to which retention of the active substance is observed (minimum) [µg/mL] | load content by weight | limiting concentration up to which the peptide adsorbs at the surface of the nanoparticles (AGuIX® 100 mM, absorption at 280 nm of subnatants (FIG. 12)) | limiting concentration up to which cisplatin adsorbs at the surface of the nanoparticles (AGuIX® 100 mM, absorption at 706 nm of ODPA-treated subnatants (FIG. 16)) |
| --- | --- | --- | --- | --- |
| N.N.[Cl][Pt][Cl] [cisplatin] | ≥ 240 | greater than 2.4 mg/g of nanoparticles | – | approximately 240 mg·L^−1 |
